Experimental data from the supplement of paper PMC10307832.

Columns and labels:
Assay in all cases: relative viability (nuclei count vs DMSO), 5 days (fraction); higher = more cells survive
[1] = compound: CCc1cnn2c(NCc3ccc[n+]([O-])c3)cc(N3CCCC[C@H]3CCO)nc12 [Dinaciclib] + Cc1nc(NC(=O)N2CCC[C@H]2C(N)=O)sc1-c1ccnc(C(C)(C)C(F)(F)F)c1 [Alpelisib] (partner 2 µM)
Procedure, shortened: (§1)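 Relative viability is defined as nuclei in treated wells over nuclei in vehicle wells. Duplicate plates were run and medians reported. Lung cancer cell lines in 1536-well plates were dosed by pin tool one day after seeding, with one drug or with a fixed anchor-drug dose plus five library-drug doses (not always all listed) in √10 steps, and nuclei were counted after 5 days.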

[2] = compound: CCc1cnn2c(NCc3ccc[n+]([O-])c3)cc(N3CCCC[C@H]3CCO)nc12 [Dinaciclib] + COc1cccc2cc(-c3nc([C@H]4CC[C@H](C(=O)O)CC4)n4ncnc(N)c34)[nH]c12 [OSI-027] (partner 0.5 µM)
Procedure, shortened: as §1

[3] = compound: CCc1cnn2c(NCc3ccc[n+]([O-])c3)cc(N3CCCC[C@H]3CCO)nc12 [Dinaciclib] + C[C@@H](Oc1cc(-c2cnn(C3CCNCC3)c2)cnc1N)c1c(Cl)ccc(F)c1Cl [Crizotinib] (partner 1 µM)
Procedure, shortened: as §1

[4] = compound: CCc1cnn2c(NCc3ccc[n+]([O-])c3)cc(N3CCCC[C@H]3CCO)nc12 [Dinaciclib] + COc1cc2c(Oc3ccc(NC(=O)C4(C(=O)Nc5ccc(F)cc5)CC4)cc3F)ccnc2cc1OCCCN1CCOCC1 [Foretinib] (partner 0.25 µM)
Procedure, shortened: as §1

[5] = compound: CCc1cnn2c(NCc3ccc[n+]([O-])c3)cc(N3CCCC[C@H]3CCO)nc12 [Dinaciclib] + N=C(N)NC(=N)NCCc1ccccc1 [Phenformin] (partner 250 µM)
Procedure, shortened: as §1

Cell Line: NCI-H596
- relative viability ([1]; first compound 0.009487 µM): 0.517
- relative viability ([1]; first compound 0.03 µM): 0.426
- relative viability ([1]; first compound 0.09487 µM): 0.105
- relative viability ([1]; first compound 0.3 µM): 0.154
- relative viability ([2]; first compound 0.009487 µM): 0.787
- relative viability ([2]; first compound 0.03 µM): 0.665
- relative viability ([2]; first compound 0.09487 µM): 0.392
- relative viability ([2]; first compound 0.3 µM): 0.153
- relative viability ([3]; first compound 0.009487 µM): 1.06
- relative viability ([3]; first compound 0.03 µM): 0.746
- relative viability ([3]; first compound 0.09487 µM): 0.196
- relative viability ([3]; first compound 0.3 µM): 0.196
- relative viability ([4]; first compound 0.009487 µM): 0.861
- relative viability ([4]; first compound 0.03 µM): 0.547
- relative viability ([4]; first compound 0.09487 µM): 0.176
- relative viability ([4]; first compound 0.3 µM): 0.178
- relative viability ([5]; first compound 0.009487 µM): 0.875
- relative viability ([5]; first compound 0.03 µM): 0.692
- relative viability ([5]; first compound 0.09487 µM): 0.438
- relative viability ([5]; first compound 0.3 µM): 0.216

Cell Line: NCI-H647
- relative viability ([1]; first compound 0.009487 µM): 0.585
- relative viability ([1]; first compound 0.03 µM): 0.055
- relative viability ([1]; first compound 0.09487 µM): 0.0588
- relative viability ([1]; first compound 0.3 µM): 0.0651
- relative viability ([2]; first compound 0.009487 µM): 0.499
- relative viability ([2]; first compound 0.03 µM): 0.206
- relative viability ([2]; first compound 0.09487 µM): 0.0824
- relative viability ([2]; first compound 0.3 µM): 0.0778
- relative viability ([3]; first compound 0.009487 µM): 0.606
- relative viability ([3]; first compound 0.03 µM): 0.0725
- relative viability ([3]; first compound 0.09487 µM): 0.0657
- relative viability ([3]; first compound 0.3 µM): 0.0722
- relative viability ([4]; first compound 0.009487 µM): 0.687
- relative viability ([4]; first compound 0.03 µM): 0.221
- relative viability ([4]; first compound 0.09487 µM): 0.0703
- relative viability ([4]; first compound 0.3 µM): 0.0856
- relative viability ([5]; first compound 0.009487 µM): 0.302
- relative viability ([5]; first compound 0.03 µM): 0.0795
- relative viability ([5]; first compound 0.09487 µM): 0.059
- relative viability ([5]; first compound 0.3 µM): 0.0723

Cell Line: NCI-H650
- relative viability ([1]; first compound 0.009487 µM): 1.21
- relative viability ([1]; first compound 0.03 µM): 0.192
- relative viability ([1]; first compound 0.09487 µM): 0.165
- relative viability ([1]; first compound 0.3 µM): 0.176
- relative viability ([2]; first compound 0.009487 µM): 0.57
- relative viability ([2]; first compound 0.03 µM): 0.203
- relative viability ([2]; first compound 0.09487 µM): 0.158
- relative viability ([2]; first compound 0.3 µM): 0.15
- relative viability ([3]; first compound 0.009487 µM): 0.638
- relative viability ([3]; first compound 0.03 µM): 0.152
- relative viability ([3]; first compound 0.09487 µM): 0.131
- relative viability ([3]; first compound 0.3 µM): 0.135
- relative viability ([4]; first compound 0.009487 µM): 1.02
- relative viability ([4]; first compound 0.03 µM): 0.182
- relative viability ([4]; first compound 0.09487 µM): 0.165
- relative viability ([4]; first compound 0.3 µM): 0.142
- relative viability ([5]; first compound 0.009487 µM): 0.407
- relative viability ([5]; first compound 0.03 µM): 0.201
- relative viability ([5]; first compound 0.09487 µM): 0.159
- relative viability ([5]; first compound 0.3 µM): 0.154

Cell Line: NCI-H661
- relative viability ([1]; first compound 0.009487 µM): 0.346
- relative viability ([1]; first compound 0.03 µM): 0.147
- relative viability ([1]; first compound 0.09487 µM): 0.176
- relative viability ([1]; first compound 0.3 µM): 0.152
- relative viability ([2]; first compound 0.009487 µM): 0.637
- relative viability ([2]; first compound 0.03 µM): 0.163
- relative viability ([2]; first compound 0.09487 µM): 0.168
- relative viability ([2]; first compound 0.3 µM): 0.168
- relative viability ([3]; first compound 0.009487 µM): 1.02
- relative viability ([3]; first compound 0.03 µM): 0.474
- relative viability ([3]; first compound 0.09487 µM): 0.145
- relative viability ([3]; first compound 0.3 µM): 0.166
- relative viability ([4]; first compound 0.009487 µM): 0.851
- relative viability ([4]; first compound 0.03 µM): 0.213
- relative viability ([4]; first compound 0.09487 µM): 0.202
- relative viability ([4]; first compound 0.3 µM): 0.199
- relative viability ([5]; first compound 0.009487 µM): 0.192
- relative viability ([5]; first compound 0.03 µM): 0.209
- relative viability ([5]; first compound 0.09487 µM): 0.185
- relative viability ([5]; first compound 0.3 µM): 0.185

Cell Line: NCI-H727
- relative viability ([1]; first compound 0.009487 µM): 0.488
- relative viability ([1]; first compound 0.03 µM): 0.159
- relative viability ([1]; first compound 0.09487 µM): 0.163
- relative viability ([1]; first compound 0.3 µM): 0.164
- relative viability ([2]; first compound 0.009487 µM): 0.468
- relative viability ([2]; first compound 0.03 µM): 0.317
- relative viability ([2]; first compound 0.09487 µM): 0.285
- relative viability ([2]; first compound 0.3 µM): 0.326
- relative viability ([3]; first compound 0.009487 µM): 0.534
- relative viability ([3]; first compound 0.03 µM): 0.171
- relative viability ([3]; first compound 0.09487 µM): 0.174
- relative viability ([3]; first compound 0.3 µM): 0.183
- relative viability ([4]; first compound 0.009487 µM): 1.05
- relative viability ([4]; first compound 0.03 µM): 0.283
- relative viability ([4]; first compound 0.09487 µM): 0.259
- relative viability ([4]; first compound 0.3 µM): 0.249
- relative viability ([5]; first compound 0.009487 µM): 0.648
- relative viability ([5]; first compound 0.03 µM): 0.284
- relative viability ([5]; first compound 0.09487 µM): 0.256
- relative viability ([5]; first compound 0.3 µM): 0.21

Cell Line: NCI-H838
- relative viability ([1]; first compound 0.009487 µM): 0.916
- relative viability ([1]; first compound 0.03 µM): 0.149
- relative viability ([1]; first compound 0.09487 µM): 0.11
- relative viability ([1]; first compound 0.3 µM): 0.123
- relative viability ([2]; first compound 0.009487 µM): 0.436
- relative viability ([2]; first compound 0.03 µM): 0.219
- relative viability ([2]; first compound 0.09487 µM): 0.0977
- relative viability ([2]; first compound 0.3 µM): 0.0933
- relative viability ([3]; first compound 0.009487 µM): 0.791
- relative viability ([3]; first compound 0.03 µM): 0.182
- relative viability ([3]; first compound 0.09487 µM): 0.0924
- relative viability ([3]; first compound 0.3 µM): 0.0905
- relative viability ([4]; first compound 0.009487 µM): 0.993
- relative viability ([4]; first compound 0.03 µM): 0.487
- relative viability ([4]; first compound 0.09487 µM): 0.125
- relative viability ([4]; first compound 0.3 µM): 0.101
- relative viability ([5]; first compound 0.009487 µM): 0.247
- relative viability ([5]; first compound 0.03 µM): 0.117
- relative viability ([5]; first compound 0.09487 µM): 0.0955
- relative viability ([5]; first compound 0.3 µM): 0.104

Cell Line: NCI-H1355
- relative viability ([1]; first compound 0.009487 µM): 0.933
- relative viability ([1]; first compound 0.03 µM): 0.233
- relative viability ([1]; first compound 0.09487 µM): 0.141
- relative viability ([1]; first compound 0.3 µM): 0.159
- relative viability ([2]; first compound 0.009487 µM): 0.435
- relative viability ([2]; first compound 0.03 µM): 0.212
- relative viability ([2]; first compound 0.09487 µM): 0.159
- relative viability ([2]; first compound 0.3 µM): 0.151
- relative viability ([3]; first compound 0.009487 µM): 1.17
- relative viability ([3]; first compound 0.03 µM): 0.762
- relative viability ([3]; first compound 0.09487 µM): 0.185
- relative viability ([3]; first compound 0.3 µM): 0.141
- relative viability ([4]; first compound 0.009487 µM): 1.12
- relative viability ([4]; first compound 0.03 µM): 0.268
- relative viability ([4]; first compound 0.09487 µM): 0.148
- relative viability ([4]; first compound 0.3 µM): 0.166
- relative viability ([5]; first compound 0.009487 µM): 0.502
- relative viability ([5]; first compound 0.03 µM): 0.319
- relative viability ([5]; first compound 0.09487 µM): 0.183
- relative viability ([5]; first compound 0.3 µM): 0.184

Cell Line: NCI-H1437
- relative viability ([1]; first compound 0.009487 µM): 0.87
- relative viability ([1]; first compound 0.03 µM): 0.182
- relative viability ([1]; first compound 0.09487 µM): 0.0937
- relative viability ([1]; first compound 0.3 µM): 0.094
- relative viability ([2]; first compound 0.009487 µM): 1
- relative viability ([2]; first compound 0.03 µM): 0.506
- relative viability ([2]; first compound 0.09487 µM): 0.132
- relative viability ([2]; first compound 0.3 µM): 0.132
- relative viability ([3]; first compound 0.009487 µM): 0.918
- relative viability ([3]; first compound 0.03 µM): 0.41
- relative viability ([3]; first compound 0.09487 µM): 0.0916
- relative viability ([3]; first compound 0.3 µM): 0.0807
- relative viability ([4]; first compound 0.009487 µM): 1.06
- relative viability ([4]; first compound 0.03 µM): 0.564
- relative viability ([4]; first compound 0.09487 µM): 0.184
- relative viability ([4]; first compound 0.3 µM): 0.15
- relative viability ([5]; first compound 0.009487 µM): 0.279
- relative viability ([5]; first compound 0.03 µM): 0.187
- relative viability ([5]; first compound 0.09487 µM): 0.17
- relative viability ([5]; first compound 0.3 µM): 0.13
